In patent US9573907B2, “2, 4-pyrimidine derivatives and use thereof” (SNU R&DB FOUNDATION, priority 2009, dated 2017):
“Also recorded” adds a separate entry of the source.

Assays:
[1] = system: cell surface gp96 of splenocytes isolated from C57BL/6 mice; test: Flow cytometry of cell surface gp96 on splenocytes; format: cell-based; details: 10 μM, 24 h
Experimental: FIGS. 1 to 9 represent suppression of cell surface gp96 by GPM1 reduces DC maturation and B220^+ population in gp96tm transgenic mice. (FIG. 1) Chemical structure of GPM1 (Formula 2) and negative control (NC1, Formula 16) used in this study. (FIG. 2) The dose-dependent effect of GPM1 or NC1 on the AIMP1-gp96 interaction using ELISA method as described. The indicated concentrations of the two compounds and biotin-conjugated murine gp96 were added to AIMP1 coated on the surface of microtiter wells, and gp96 bound to AIMP1 was detected with strepavidin-conjugated peroxidase. (FIG. 3) The binding of GPM1 to gp96 was examined by surface plasmon resonance (SPR). GPM1 at the indicated concentrations was injected to immobilized gp96 and the binding was measured using Biacore 3000. The response data were processed using data from a reference surface and buffer injections. Each concentration was tested in triplicate. (FIG. 4) RAW24.7 cells were treated with 10 μM GPM1 for 24 h. Cell lysates were immunoprecipitated with control IgG or anti-gp96 antibody and the immunoprecipitated proteins were immunoblotted with anti-KDELR1, antiAIMP1 and gp96 antibodies. WCL means whole cell lysate. […] TNFα secreted from BMDCs was quantified by ELISA. […]

[2] = target: interaction of gp96 and AIMP1 (Mus musculus, UniProt P08113); test: ELISA assay of gp96-AIMP1 interaction; format: binding, murine
Sequence of interaction of gp96 and AIMP1 (P08113 22-802): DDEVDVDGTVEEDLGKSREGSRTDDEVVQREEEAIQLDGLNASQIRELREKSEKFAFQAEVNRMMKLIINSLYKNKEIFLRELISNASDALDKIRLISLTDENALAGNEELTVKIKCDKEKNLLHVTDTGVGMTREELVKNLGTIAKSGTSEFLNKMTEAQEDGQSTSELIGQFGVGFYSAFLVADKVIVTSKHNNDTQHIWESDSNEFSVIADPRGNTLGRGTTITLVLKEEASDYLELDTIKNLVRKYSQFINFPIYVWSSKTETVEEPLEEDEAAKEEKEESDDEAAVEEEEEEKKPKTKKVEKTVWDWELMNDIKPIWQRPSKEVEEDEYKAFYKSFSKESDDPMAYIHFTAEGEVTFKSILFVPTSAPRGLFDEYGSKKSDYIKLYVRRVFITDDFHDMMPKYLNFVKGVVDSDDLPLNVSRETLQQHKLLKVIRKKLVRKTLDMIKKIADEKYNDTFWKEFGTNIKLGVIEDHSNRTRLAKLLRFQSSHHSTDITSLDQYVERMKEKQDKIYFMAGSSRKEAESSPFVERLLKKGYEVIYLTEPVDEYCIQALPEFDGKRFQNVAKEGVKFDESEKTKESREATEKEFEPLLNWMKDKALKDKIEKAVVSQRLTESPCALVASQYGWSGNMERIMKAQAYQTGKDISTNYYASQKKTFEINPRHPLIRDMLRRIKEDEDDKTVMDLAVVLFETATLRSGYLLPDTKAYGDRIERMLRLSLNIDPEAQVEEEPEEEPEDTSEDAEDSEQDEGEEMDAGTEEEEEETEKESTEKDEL
Experimental: FIGS. 1 to 9 represent suppression of cell surface gp96 by GPM1 reduces DC maturation and B220^+ population in gp96tm transgenic mice. (FIG. 1) Chemical structure of GPM1 (Formula 2) and negative control (NC1, Formula 16) used in this study. (FIG. 2) The dose-dependent effect of GPM1 or NC1 on the AIMP1-gp96 interaction using ELISA method as described. The indicated concentrations of the two compounds and biotin-conjugated murine gp96 were added to AIMP1 coated on the surface of microtiter wells, and gp96 bound to AIMP1 was detected with strepavidin-conjugated peroxidase. (FIG. 3) The binding of GPM1 to gp96 was examined by surface plasmon resonance (SPR). GPM1 at the indicated concentrations was injected to immobilized gp96 and the binding was measured using Biacore 3000. The response data were processed using data from a reference surface and buffer injections. Each concentration was tested in triplicate. (FIG. 4) RAW24.7 cells were treated with 10 μM GPM1 for 24 h. Cell lysates were immunoprecipitated with control IgG or anti-gp96 antibody and the immunoprecipitated proteins were immunoblotted with anti-KDELR1, antiAIMP1 and gp96 antibodies. WCL means whole cell lysate. (FIG. 5) Splenocytes isolated from C57BL/6 mice were treated with vehicle (5% DMSO in PBS), GPM1, or NC1 (10 μM, 24 h), stained for cell surface gp96, and followed by flow cytometry. (FIG. 6) AIMP1^+/+ or AIMP1^−/− mouse splenocytes (2×10^5 cells) were treated with vehicle, GPM1, or NC1 (10 μM, 24 h), fixed, and then co-cultured with WT bone marrow-derived DCs (1×10^4 cells) for 16 h. TNFα secreted from BMDCs was quantified by ELISA. (FIG. 7) Percentage of gp96^+ MHC class II^+ cell population in splenocytes from gp96tm transgenic female mice treated with vehicle (control) (n=9), GPM1 (n=9), and dexamethasone (n=7) at 30 mg/kg. (FIG. 8) Cell surface ICOSL of CD11b^+CD11c^+ (myeloid DCs), CD11b^−CD11c^+ (lymphoid DCs), and CD11b^+CD11c^− (macrophages) cell populations in splenocytes from gp96tm transgenic female mice treated with vehicle (n=9) and GPM1 (n=9) at 30 mg/kg. (FIG. 9) Percentage of B220^+, MHC class II^+, CD4^+, CD8^+, CD4 and CD8 double negative cell populations in splenocytes from gp96tm transgenic female mice treated with vehicle (n=9), GPM1 (n=9), and dexamethasone (n=7) at 30 mg/kg. Student t-test P values comparing GPM1-treated mice with control are indicated.
96-well plates (Maxisorp., F96; Nunc) were coated with 500 ng/well AIMP1 in PBS (pH 7.4). After washing, the remaining sites were blocked with PBS containing 1% BSA for 1 h. Binding of 10 ng/well biotin-conjugated gp96 was performed in Tris buffer (25 mM Tris, 10 mM NaCl and 0.4% Triton X-100). Each of the 6,580 compounds was added to the well at 100 nM and the plates were washed and incubated with HRP conjugated streptavidin in PBS containing 0.1% BSA and 0.1% Tween 20 for 30 min. The plates were washed, and then substrate was added to each well. The absorbance was monitored at 450 nm.
To identify chemicals that can affect membrane translocation of gp96, the present inventors employed the interaction of gp96 with AIMP1 as the screening target. For this screening, the present inventors chose 6,482 chemicals with different pharmacophore representing 150,000 different chemicals deposited in Korea Chemical Bank and identified the compounds that can inhibit the interaction of the two proteins. For the screening, the present inventors set up a modified ELISA method using recombinant AIMP1 and gp96 proteins as described in Experimental methods. Each of the tested compounds gave different effect on the interaction of the two proteins (FIG. 19). And the present inventors have selected 12 compounds that inhibited the interaction more than 95% of the control at 0.1 μM (Table 1). The present inventors obtained 1251 additional compounds derived from these 12 initial hits and tested them again for their activities against the gp96-AIMP1 interaction.

HL-60 cell lines = test: FACS analysis of gp96 on cell surface of HL-60 cell lines; format: cell-based; details: 1 mM, 24 hours
Experimental: FIG. 35 is a graph showing an FACS analysis result using gp96 antibody, on the amount of gp96 protein existing on a cell surface, when HL-60 cell lines were treated with a 2,4-pyrimidine derivatives at a concentration of 1 mM for 24 hours.
Also, HL-60 cell lines were treated with a 2,4-pyrimidine derivative at a concentration of 1 mM for 24 hours, and the amount of gp96 protein existing on a cell surface was analyzed through flow cytometry (FACS) using gp96 antibody.

Row | Compound | amount of gp96 protein existing on a cell surface (HL-60 cell lines) | other results
1 | COc1cc(OC)nc(OC(Cc2ccccc2)C(=O)O)n1 (stereo not shown) [NC1, 2-(4,6-dimethoxypyrimidin-2-yloxy)-3-phenylpropanoic acid, reference compound] |  | surface gp96 of mouse splenocytes [1]: not; inhibition on the interaction of gp96 and AIMP1 [2]: 4%; dose-dependent effect on the interaction of gp96 and AIMP1 ([2]; ELISA): no effect
2 | COC(=O)[C@H](C)Oc1nc(OC)cc(OC)n1 [KR-S-011, L-2-(4,6-Dimethoxy-pyrimidin-2-yloxy)-propionic acid methyl ester] | better effects than KR-S-015; also recorded: better than isopropyl (KR-S-009, KR-S-010) | 
3 | COc1cc(OC)nc(O[C@H](C)C(=O)O)n1 [KR-S-023, D-2-(4,6-Dimethoxy-pyrimidin-2-yloxy)-propionic acid] | better effects than KR-S-015; also recorded: better than isopropyl (KR-S-009, KR-S-010) | 
4 | CCN(CC)C(=O)C(Oc1nc(OC)cc(OC)n1)C(C)C (stereo not shown) [KR-S-001, 2-(4,6-Dimethoxy-pyrimidin-2-yloxy)-N,N-diethyl-3-methyl-butyl amide] | better effects than KR-S-015; also recorded: better than ester (KR-S-010) or acid (KR-S-009) | 
5 | COc1cc(OC)nc(OC(C(=O)O)c2ccccc2)n1 (stereo not shown) [KR-S-017, (4,6-Dimethoxy-pyrimidin-2-yloxy)-phenyl-acetic acid] | better effects than KR-S-015 | 
6 | 2-(4,6-dimethoxy-pyrimidin-2-yloxy)-N-isopropyl-3-methyl-butyl amide [KR-S-005] | better effects than KR-S-015; also recorded: better than ester (KR-S-010) or acid (KR-S-009) | 
7 | COc1cc(OC)nc(O[C@@H](C)C(=O)O)n1 [KR-S-024, L-2-(4,6-Dimethoxy-pyrimidin-2-yloxy)-propionic acid] | better effects than KR-S-015; also recorded: better than isopropyl (KR-S-009, KR-S-010) | 
8 | CCCCNC(=O)C(Oc1nc(OC)cc(OC)n1)c1ccccc1 (stereo not shown) [KR-S-020, N-Butyl-2-(4,6-dimethoxy-pyrimidin-2-yloxy)-2-phenyl-acetamide] | better effects than KR-S-015 | 
